Measurements as given in patent publication US11136300B2, “Crystalline forms of 3-substituted 1,2,4-oxadiazole” (Aurigene Discovery Technologies Limited, priority 2017, dated 2021).
In brackets after ≈: the same amount, converted by molar mass.

Experiments:
Format in all cases: physicochemical
[1] = Storage of Form 1 at ambient conditions
Procedure: Formula (I) Form 1 exists at ambient conditions upon short term storage (i.e., less than 8 d). A mixture of formula (I) Forms 1 and 2 (16 mg) was weighed into a glass vial, and tetrahydrofuran (THF, 0.5 mL) was added. The resulting slurry was stirred at room temperature for about 4 d. The wet solids were analyzed by XRPD in transmission mode and confirmed to be crystalline formula (I) Form 1, as shown by XRPD analysis (FIG. 1).

[2] = Solid stability of crystalline Form 2 on storage; conditions: 7-8 days
Procedure: Samples of formula (I) crystalline Form 2 were stored as solids at 25° C./60% Relative Humidity (RH), 30° C./˜56%, and 40° C./75% RH for 7-8 days. The samples were prepared in duplicate with an offset of 2 weeks. Each replicate was stored in a different container.

[3] = Equilibrium solubility of formula (I) Form 2 in water; conditions: for Final Form: solids checked by XRPD after 6 hrs; for solubility at 6 h: thermodynamic from solid, equilibrated 6 hrs, supernatant by HPLC
Procedure: Equilibrium solubility of formula (I) Form 2 was measured in the water at 20° C. and 30° C. All samples were equilibrated at temperature for 6 hrs, and the solubility of supernatant was measured by HPLC, while the solids were checked by XRPD. (See Table 9.)

| time for which the form exists on short term storage [1] | solid form and particle morphology after storage ([2]; 25° C./60% RH) | solid form and particle morphology after storage ([2]; 30° C./~56% RH) | solid form and particle morphology after storage ([2]; 40° C./75% RH) | form change during the solubility testing ([3]; 20° C. and 30° C., XRPD (FIG. 6)) | Final Form ([3]; 20° C.) | Final Form ([3]; 30° C.) | solubility at 6 h ([3]; 20° C.) | solubility at 6 h ([3]; 30° C.) | SMILES |
| --- | --- | --- | --- | --- | --- | --- | --- | --- | --- |
| less than 8 d |  |  |  |  |  |  |  |  | CC(O)[C@H](NC(=O)N[C@@H](CC(N)=O)c1nc([C@@H](N)CO)no1)C(=O)O (stereo partly drawn) [Form 1] |
|  | remained unchanged | remained unchanged | remained unchanged | No form change was observed | Form 2 | Form 2 | 148 mg/mL (≈ 410 mM) | 166 mg/mL (≈ 459 mM) | CC(O)[C@H](NC(=O)N[C@@H](CC(N)=O)c1nc([C@@H](N)CO)no1)C(=O)O (stereo partly drawn) [Form 2] |
